Laboratory results reported in patent US20030143559A1, “Novel estrogen receptor ligand binding domain variants and novel ligands and pharmaceutical compositions” (priority 2001, published 2003).
Substitutions are numbered along the chain they refer to. pEC50, pIC50: −log10 of the molar value.

What was measured:
[1] = BIV lentiviral reporter vector without activator, eGFP expression by FACS in 293T cells; assay type: cell-based; conditions: reporter BIVC2H2FOSEGFP, activator none; 100 nM, forty-eight hours
Excerpt: One of the reporter constructs described above was introduced individually into 3×10^6 293T cells along with other components of the BIV four component packaging system (U.S. patent application of Luo et al. filed Feb. 4, 2002 entitled “Recombinant Bovine Immunodeficiency Virus Based Gene Transfer System” (Atty Docket No. 2048-127; serial number to be assigned) and Matukonis et al., (“Development of Second and Third Generation of Bovine Immunodeficiency Virus Based Gene Transfer Systems” Human Gene Therapy, in press (2002)) by CaPO4-mediated transient transfection. Eighteen hours post transfection, media were replaced with fresh DMEM containing 10% FBS and 200 mM butyric acid. Forty-eight hours later, conditioned media were collected from the transfected cells. Two mls of conditioned media from each transfection plus 2 mls of DMEM/FBS were added to 2×10^5 293T cells in individual wells of a six well tissue culture plate. In addition, 2 mls of conditioned media from either the pBIVC2H2FOSeGFP transfections were combined with 2 mls of conditioned media from the pBIVMNDC7 or pBIVMND2AS transfections and added to 2×10^5 293T cells. 8 μg/ml protamine sulfate were added to each transduction reaction. Four hours later, conditioned media was removed from the transduced cells and replaced with fresh DMEM/FBS. […]

ER-LBD H524G = biological target: T1, ER-LBD H524G (Homo sapiens, UniProt P03372, H524G); experiment: ER-LBD H524G transactivation, cell-based reporter gene assay
T1 construct: expressed in transfected cells
T1 sequence (P03372 311-547 H524G limits assumed): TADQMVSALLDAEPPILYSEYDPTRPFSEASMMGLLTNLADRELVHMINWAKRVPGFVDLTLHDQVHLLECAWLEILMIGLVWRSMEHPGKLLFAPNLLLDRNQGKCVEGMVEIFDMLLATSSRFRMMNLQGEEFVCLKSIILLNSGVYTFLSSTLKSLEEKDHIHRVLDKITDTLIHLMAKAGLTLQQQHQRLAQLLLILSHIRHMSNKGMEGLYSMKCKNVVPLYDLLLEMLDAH
Method: (§1) In order to evaluate the ability of the fusion proteins C7LBD A, B, and the related LBD mutants to regulate transgene expression, a standard co-transfection reporter assay was performed. A reporter construct, henceforth known as 6×2C7pGL3Luc, containing six copies of a directly repeated C7 binding site (6×2C7) inserted upstream of an SV40 promoter fragment and reporter gene encoding firefly luciferase (pGL3Pro; Promega) was transfected along with the designated fusion protein and assayed as described below. Note the consensus C7 binding site is 5′-GCG TGG GCG-3′.
(§2) Cultured cells (HeLa, Cos, Hep3B or other) were seeded at 5×10^4 cells/well in a 24 well plate prior to the day of transfection in DMEM Phenol-free media, supplemented with L-glutamine and 5% (v/v) charcoal-dextran stripped Fetal Bovine serum (sFBS). Cells were transfected using the Qiagen Superfect Transfection method. For each well 1 μg of total DNA, containing 0.5 μg luciferase reporter plasmid (6×2C7pGL3Luc), 0.1 μg of chimeric activator DNA (e.g., C7LBDA, C7LBDB, or mutants thereof ), and 0.4 μg of an inert carrier plasmid DNA (p3Kpn), was mixed with 60 μL of DMEM phenol-free/serum free media, and 5 μL of Superfect reagent. In general, about 10 ng to about 0.5 μg of chimeric activator DNA was used for each well.
The mixture was vortexed for 10 seconds and incubated at room temperature for 10 minutes, followed by the addition of 350 μL of DMEM phenol-free 5% sFBS media. Cells were washed once with Dulbecco's phosphate buffered saline (DPBS) and the transfection mixture placed on the cells. Cells were washed once with DPBS following a 2.5 hour incubation at 37 degrees Celsius, and re-fed with DMEM Phenol-free 5% sFBS media.
Cells were treated 24 hours later by washing once with DPBS and adding 200 μL 1X reporter lysis buffer (Promega). Plates were frozen at -80° C. and on the day of assay thawed at room temperature for 1.5 hours on an orbital shaker at 100 RPM. After allowing for cellular debris to settle, lysate was transferred to a new tube, diluted 1:10 with 1X reporter lysis buffer and 10 μL transferred to 96 well opaque plates.
The sequence of the oligonucleotides used for the H524G modification were […] […] Mutated plasmids were isolated and their sequence confirmed.

Av3-H524G = biological target: T2, Av3-H524G (Homo sapiens, UniProt P03372, H524G); experiment: Transactivation on adenoviral (Av3)-delivered ER variant, luciferase in HeLa cells; assay type: cell-based; conditions: 100 nM test compound, 24 hrs (FIG. 5)
T2 construct: fragment B=ER amino acids 258-554; expressed in transfected cells; host or cells: HeLa cells transduced with Av3 or gutless adenoviral vector
T2 sequence (P03372 258-554 H524G): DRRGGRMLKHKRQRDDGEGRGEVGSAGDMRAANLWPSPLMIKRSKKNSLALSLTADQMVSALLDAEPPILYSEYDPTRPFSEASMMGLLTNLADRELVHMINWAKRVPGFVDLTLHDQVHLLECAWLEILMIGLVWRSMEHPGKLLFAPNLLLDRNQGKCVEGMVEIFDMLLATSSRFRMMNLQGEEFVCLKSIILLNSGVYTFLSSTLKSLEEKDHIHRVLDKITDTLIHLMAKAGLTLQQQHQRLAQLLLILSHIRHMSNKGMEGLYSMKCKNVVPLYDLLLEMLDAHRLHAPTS
Excerpt: Xu et al., Molecular Therapy, 3:262-273, 2000.

[2] = biological target: T3, 524G transcription factor (Homo sapiens, UniProt P03372, H524G); experiment: In vitro inducible luciferase expression with gutless adenoviral transcription factor vector in Hela cells; assay type: cell-based
T3 construct: fragment B=ER amino acids 258-554; expressed in transfected cells; host or cells: HeLa cells transduced with Av3 or gutless adenoviral vector
T3 sequence (P03372 258-554 H524G): T2 sequence (P03372 258-554 H524G)

H524A mutant = biological target: T4, H524A mutant (Homo sapiens, UniProt P03372, H524A); experiment: H524A mutant activation, cell-based reporter gene assay; conditions: 10 nM ligand
T4 construct: plasmids encoding the fusion proteins ER-LBD-C7LBDa and C7LBDb to substitute either alanine or glycine for histidine at residue 524; expressed in transfected cells
T4 sequence (P03372 311-547 H524A limits assumed): T1 sequence (P03372 311-547 H524G limits assumed) with G214A
Method: as §1
as §2, with “well. […]” for “well.”

wild-type ER = biological target: T5, wild-type ER (Homo sapiens, UniProt P03372); experiment: Inhibition of E2 activity on wild-type ER, COS-7 cells with pHEGO and ERE luciferase reporter; assay type: cell-based; conditions: IC50 ± STDEV, pHEGO and pERETkLuc, E2 (3 nM) + 0.1 to 1000 nM compound
T5 construct: expressed in transfected cells; host or cells: COS-7
T5 sequence (P03372 1-595): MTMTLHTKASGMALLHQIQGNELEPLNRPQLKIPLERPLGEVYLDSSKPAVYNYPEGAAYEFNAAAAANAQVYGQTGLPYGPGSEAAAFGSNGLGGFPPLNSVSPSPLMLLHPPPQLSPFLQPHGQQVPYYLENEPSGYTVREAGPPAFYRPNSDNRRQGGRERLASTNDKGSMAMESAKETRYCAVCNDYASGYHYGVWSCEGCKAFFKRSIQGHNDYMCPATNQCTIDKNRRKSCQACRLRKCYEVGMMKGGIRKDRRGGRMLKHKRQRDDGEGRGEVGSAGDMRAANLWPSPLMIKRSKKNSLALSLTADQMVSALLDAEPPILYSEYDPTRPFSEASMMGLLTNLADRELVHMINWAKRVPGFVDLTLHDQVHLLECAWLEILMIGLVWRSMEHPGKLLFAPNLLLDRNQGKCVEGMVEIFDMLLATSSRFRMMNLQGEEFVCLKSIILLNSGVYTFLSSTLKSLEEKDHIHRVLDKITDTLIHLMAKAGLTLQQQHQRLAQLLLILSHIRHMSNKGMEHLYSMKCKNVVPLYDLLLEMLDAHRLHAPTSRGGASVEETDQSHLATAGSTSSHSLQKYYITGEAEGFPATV
Method: For transfection, 0.5 microgram of pERE2tkluc reporter plasmid, 20 ng of pHEGO, and 0.5 microgram of pCIneo inert carrier DNA were combined with 60 microliter serum-free DMEM and 5 microliter Qiagen Superfect transfection reagent, vortexed for 10s, and set at room temperature for 10 min. Each sample was diluted with 350 microliters of steroid-free media, mixed, and added to each well. Following 2 hr 30 min incubation at 37° C., cells were washed once with Dulbecco's phosphate buffered saline (DPBS), and refed with steroid-free media. […] Approximately 24 hr after treatment, cells were washed once with DPBS, then 200 microliter of reporter lysis buffer was added per well and frozen at −80° C. Cells were thawed at room temperature on an orbital shaker for 1 hr 30 min. A 10 microliter aliquot of lysate was transferred to 96 well opaque plates, and relative luciferase units (RLU) determined on a luminometer using the appropriate firefly luciferase substrate.
Note that the nonspecific activity is a noncompetable element in the assay system.
In order to dissolve them completely, all the solutions were warmed in 55° C. or boiled water bath for 10 to 20 min before use. The DMSO in cell culture medium was maintained to 0.01% for all the drug concentration tested as well as the vehicle control.

Row | Molecule | % Gated Cells [1] [%] | degree of induction of H524G as compared to estrogen (ER-LBD H524G; 10 nM) | fold induction at 0.01 µM (ER-LBD H524G; 10 nM ligand, H524G (FIG. 6)) | fold induction at 10 nM (ER-LBD H524G; 10 nM ligand, H524G (FIG. 6)) [fold] | pEC50 (ER-LBD H524G; Table 3, read-out: EC50 ± STDEV) | luciferase activity over the basal level (Av3-H524G) [times] | Fold Induction ([2]; 100 nM ligand vs without ligand) [fold] | Luciferase Expression Levels (Relative Light Units) ([2]; (+) induced with 100 nM ligand, mean +/− standard error (n = 4)) | fold induction at 0.01 µM (H524A mutant) | pIC50 (wild-type ER)
1 | 4-hydroxytamoxifen [4-OHT] | 0.36 | – | – | – | – | – | – | – | – | –
2 | C/C(=C(/c1ccc(O)cc1)c1ccc(OCCN(C)C)cc1)c1ccc(N2CCOCC2)cc1 [LBF580, 4-((1E)-1-{4-[2-(dimethylamino)ethoxy]phenyl}-2-(4-morpholin-4-ylphenyl)prop-1-enyl)phenol] | – | nine | 138 | 140 | ≥ 7.60 | 16 | 8 | 285695 +/− 2331 Relative Light Units | 4 | 6.60
